# In patent US10016382B2, “Method for decreasing skeletal muscle damage and/or oxidative stress in mammals” (LONZA INC., priority 2014, dated 2018):
# “And” between values parts separate entries of the source, which are not always exact repeats. Equal values may be shown once.
# System: Labrador Retrievers
# Assay: Activity by Actical monitors, long (endurance) runs, Example 1
# Type: in vivo, dog
# Settings: Ex.1, 250 mg/d; for Activity long runs, Least Sq Mean: average of 13 weekly long runs, mixed model
# Source text: Each test dog wore an Actical activity monitor from Philips Respironics on a collar for the short higher intensity runs and also wore an Actical activity monitor for the weekly longer endurance runs. The activity data was downloaded into spread sheets along with each dogs identity. Twenty four hours after each long run during the 13 wk running program each of the dogs were scored by kennel staff for soreness or any type of lameness The exercise program was decreased in a tapering program during wk 11 and 12 to allow the dogs to rest for the final long run completed on wk 13. Pre-run serum samples from each test dog was taken 24 hr before the last endurance run. The heart rate and basal body temperature was determined for each test dog prior to the last long endurance run. The distance and number of sprints affiliated with the short runs (marks) were decreased during wk 11 back to 1200 total yd/d or 2400 yd/wk and decreased again on wk 12 to 600 yd/d or a total of 1200 yd/wk to provide rest for the final long run on wk 13. The weekly endurance run was 5 miles in the beginning, increased by ½ mile per wk and was increased to a distance of 10 miles on the 10th week. The dogs ran only a 5 mile endurance run on wk 11 and only a 2 mile endurance run on wk 12 in order to rest for the final long run during the 13th wk. The endurance (long) runs for the 40 dogs were carried out on the 5th and 6th day of each wk for both treatments. Half of the dogs were run on Friday (5th d) and half of the dogs were run on the Saturday (6th d). The exercise regimen was finalized during the 13th week of the study by resting the dogs for 3 days and then running half of the dogs from each group for a 15 mile endurance run on Monday and the remaining 20 dogs were run the 15 mile endurance run on Tuesday. The longer endurance type runs were slightly slower to enhance fat oxidation and represent an exercise intensity equivalent to 50%-65% VO2 max. Performance and Recovery Time: An Actical monitor (Philips Respironics) was worn around the neck of each dog on a collar and utilized to evaluate the amount of movement (measured total movements and intensity) for each dog for the purpose of evaluating equal work between treatments and also to evaluate the individual work intensity while completing the daily retrieves. Each dog wore the Actical monitor for each long run and wore the Actical monitor for the final 15 mile run. The Actical monitor data was downloaded to a computer for evaluation. Statistical Methods: GraphPad Prism 6.0 was used to compare means between groups for run time, food intake, body weight, and changes in blood chemistry using an unpaired t-test. Results were considered significant if a p-value of 0.05 was obtained. JMP 10.0.2 was used to create a mixed model for long runs, short runs, body composition, and blood chemistry.
structure (smiles),measurement,setting,value
C[N+](C)(C)C[C@H](O)CC(=O)[O-] [L-carnitine],"Activity long runs, APM/lb Mean","Week 1, both sexes",1535 Movements/Mile/LB BW
same,"Activity long runs, APM/lb Mean","Week 1, females",1825 Movements/Mile/LB BW
same,"Activity long runs, APM/lb Mean","Week 1, males",1298 Movements/Mile/LB BW
same,"Activity long runs, APM/lb Mean","Week 2, both sexes",1385 Movements/Mile/LB BW
same,"Activity long runs, APM/lb Mean","Week 2, females",1616 Movements/Mile/LB BW
same,"Activity long runs, APM/lb Mean","Week 2, males",1177 Movements/Mile/LB BW
same,"Activity long runs, APM/lb Mean","Week 3, both sexes",1298 Movements/Mile/LB BW
same,"Activity long runs, APM/lb Mean","Week 3, females",1559 Movements/Mile/LB BW
same,"Activity long runs, APM/lb Mean","Week 3, males",1065 Movements/Mile/LB BW
same,"Activity long runs, APM/lb Mean","Week 4, both sexes",1334 Movements/Mile/LB BW
same,"Activity long runs, APM/lb Mean","Week 4, females",1522 Movements/Mile/LB BW
same,"Activity long runs, APM/lb Mean","Week 4, males",1093 Movements/Mile/LB BW
same,"Activity long runs, APM/lb Mean","Week 5, both sexes",1288 Movements/Mile/LB BW
same,"Activity long runs, APM/lb Mean","Week 5, females",1582 Movements/Mile/LB BW
same,"Activity long runs, APM/lb Mean","Week 5, males",1048 Movements/Mile/LB BW
same,"Activity long runs, APM/lb Mean","Week 6, both sexes",1278 Movements/Mile/LB BW
same,"Activity long runs, APM/lb Mean","Week 6, females",1472 Movements/Mile/LB BW
same,"Activity long runs, APM/lb Mean","Week 6, males",1105 Movements/Mile/LB BW
same,"Activity long runs, APM/lb Mean","Week 7, both sexes",1264 Movements/Mile/LB BW
same,"Activity long runs, APM/lb Mean","Week 7, females",1391 Movements/Mile/LB BW
same,"Activity long runs, APM/lb Mean","Week 7, males",1162 Movements/Mile/LB BW
same,"Activity long runs, APM/lb Mean","Week 8, both sexes",1241 Movements/Mile/LB BW
same,"Activity long runs, APM/lb Mean","Week 8, females",1437 Movements/Mile/LB BW
same,"Activity long runs, APM/lb Mean","Week 8, males",1081 Movements/Mile/LB BW
same,"Activity long runs, APM/lb Mean","Week 9, both sexes",1194 Movements/Mile/LB BW
same,"Activity long runs, APM/lb Mean","Week 9, females",1355 Movements/Mile/LB BW
same,"Activity long runs, APM/lb Mean","Week 9, males",1062 Movements/Mile/LB BW
same,"Activity long runs, APM/lb Mean","Week 10, both sexes",1192 Movements/Mile/LB BW
same,"Activity long runs, APM/lb Mean","Week 10, females",1385 Movements/Mile/LB BW
same,"Activity long runs, APM/lb Mean","Week 10, males",1018 Movements/Mile/LB BW
same,"Activity long runs, APM/lb Mean","Week 11, both sexes",1364 Movements/Mile/LB BW
same,"Activity long runs, APM/lb Mean","Week 11, females",1655 Movements/Mile/LB BW
same,"Activity long runs, APM/lb Mean","Week 11, males",1126 Movements/Mile/LB BW
same,"Activity long runs, APM/lb Mean","Week 13, both sexes",1116 Movements/Mile/LB BW
same,"Activity long runs, APM/lb Mean","Week 13, females",1251 Movements/Mile/LB BW
same,"Activity long runs, APM/lb Mean","Week 13, males",1006 Movements/Mile/LB BW
same,"Activity long runs, Least Sq Mean",both sexes,1317 Movements/Mile/LB BW and 1317.0647 Movements/Mile/LB BW
same,"Activity long runs, Least Sq Mean",females,1509 Movements/Mile/LB BW and 1509.2493 Movements/Mile/LB BW
same,"Activity long runs, Least Sq Mean",males,1124 Movements/Mile/LB BW and 1124.8801 Movements/Mile/LB BW
